Experimental data published in patent USRE43879E1, “Use of the dextrogyral enantiomer of milnacipran for the preparation of a drug” (priority 2003, dated 2012).
Where two headings read alike, the source gives them in different places.

Experiments:
3H-norepinephrine uptake [1] = molecular target: T1, 3H-norepinephrine uptake (Rattus norvegicus, UniProt Q63380); details: read-out: IC50 3H-Norepinephrine uptake; rat hypothalamus P2, 3H-NE 50 nM, 10 min, 37° C.
Protocol: (§1) Norepinephrine Uptake by a Homogenate (P2) of Rat Hypothalamus.
(§2) Male Sprague-Dawley rats, from 200 to 300 g, were stunned and decapitated, and the hypothalami were rapidly removed. Two hypothalami are homogenised in 4 ml of sucrose 0.32 M on a Potter S by 16 complete passes back and forth at 800 rpm, then centrifuged for 10 min at 1,000 g to eliminate cell debris. The supernate is centrifuged for 20 min at 10,000 g and the P2 thus obtained is recovered in 4 ml of sucrose 0.32 M, and homogenised on a Dounce.
(§3) ^3H-(1)-NE: 13 Ci/mmol (Amersham) is used.
(§4) Uptake takes place in a phosphate buffer (containing 8 g of NaCl, 1.21 g of K2HPO4 and 0.34 g of KH2PO4 per liter) pre-oxygenated 30 min before use with a mixture of O2/CO2 (95%/5%).
(§5) In 5-ml plastic tubes placed in a water bath at 37° C., the following are introduced: • 100 μl of buffer or inhibitor, • 700 μl of buffer (containing 25 μM pargyline), • 100 μl of P2.
(§6) After temperature balance, the reaction begins by the addition of 100 μl of ^3H-NE, 50 nM final concentration.
(§7) Exactly 10 min later, the reaction is stopped by adding 2.5 ml of chilled buffer and filtering through GF/F filters. The tube is then rinsed once and the filter once with 2.5 ml of chilled buffer. The filter is then introduced into a Beckman mini-vial and, after adding 3 ml of Instagel (Packard) liquid scintillator, radioactivity is measured with a Tricarb Packard scintillation counter.
(§8) Non-specific uptake (NS) is measured as the presence of DMI 10^−5 M.
(§9) The percentage of inhibition is calculated using the formula:
(§10) The IC50 is determined graphically on the mean curve of percentage of inhibition (4 assays) in relation to the log of the concentration of inhibitor.

3H-paroxetine binding = molecular target: T2, 3H-paroxetine binding (Rattus norvegicus, UniProt P31652); test: Paroxetine binding, rat hypothalamus membranes
T2 construct: the hypothalamus was removed, weighed and homogenised on a Dounce; from tissue
T2 sequence (P31652 whole entry): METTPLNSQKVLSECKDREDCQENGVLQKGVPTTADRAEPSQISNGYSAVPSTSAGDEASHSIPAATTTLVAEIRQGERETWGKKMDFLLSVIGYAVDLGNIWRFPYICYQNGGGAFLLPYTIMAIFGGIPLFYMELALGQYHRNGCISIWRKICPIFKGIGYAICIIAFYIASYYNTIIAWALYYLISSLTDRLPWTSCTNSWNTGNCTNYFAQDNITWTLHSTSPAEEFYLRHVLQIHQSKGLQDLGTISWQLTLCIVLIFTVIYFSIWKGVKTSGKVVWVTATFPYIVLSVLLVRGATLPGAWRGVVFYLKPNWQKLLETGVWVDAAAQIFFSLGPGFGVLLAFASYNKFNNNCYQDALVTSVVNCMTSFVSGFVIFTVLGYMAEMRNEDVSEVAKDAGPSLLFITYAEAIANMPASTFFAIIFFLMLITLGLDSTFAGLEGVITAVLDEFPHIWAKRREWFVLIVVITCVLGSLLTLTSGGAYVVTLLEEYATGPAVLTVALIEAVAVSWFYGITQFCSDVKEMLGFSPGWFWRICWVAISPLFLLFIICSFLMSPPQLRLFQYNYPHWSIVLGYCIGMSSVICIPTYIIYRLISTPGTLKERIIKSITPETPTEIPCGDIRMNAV
Protocol: 2.1.3. Paroxetine Binding
Male Sprague-Dawley rats (Janvier) weighing 180-200 g were used. The hypothalami of several rats were collected and homogenised in 5 ml of chilled buffer (50 mM Tris-HCL, 120 mM NaCl, 5 mM KCl, pH 7.5) on a Dounce, and the homogenate was centrifuged at 30 000 g (27 000 rpm-Beckman. L5-50E, T40 rotor) for 10 min. The residue obtained was recovered in 5 ml of buffer and re-centrifuged under the same conditions. The new residue was recovered in the same buffer and finally re-homogenised on a Dounce at a tissue concentration of 10 mg/ml. The membrane suspension (100 μl) was incubated with 3H-paroxetine (NEN, France, 28.6 Ci/mmol) at a concentration (final) of 0.1 nM, at 20° C., in a final volume of 1 ml for 2 hr. After 2 hr incubation, the reaction was stopped by vacuum filtration on Whatman GF/F filters pre-treated in a 0.05% solution of polyethylenimine 30 min beforehand (prediluted with 4 ml of chilled buffer, then the tube was rinsed with 2 times 4 ml). Radioactivity was measured by liquid scintillation spectrometry (Packard, Tricarb 4640) using Emulsifier-Safe (Packard) as the scintillating agent.
Specific ^3H-paroxetine binding was defined as the difference between total binding and that remaining in the presence of 10 μM of fluoxetine.
The IC50 were determined by transposing the percentages of inhibition onto a graph in relation to the log of the concentration of the product (6 concentrations in duplicate).

3H-serotonin uptake = molecular target: T3, 3H-serotonin uptake (Rattus norvegicus, UniProt P31652); test: Serotonin uptake, rat hypothalamus P2 fraction (synaptosomes); type: biochemical
T3 construct: the hypothalamus was removed, weighed and homogenised on a Dounce; from tissue
T3 sequence (P31652 whole entry): as above
Protocol: After homogenisation of brain tissue in a sucrose solution, the presynaptic terminals break away from the axon and close to form synaptosomes obtained by subcellular fractionation.
Male Sprague-Dawley (Janvier) rats weighing 180-200 g were used.
This homogenate was centrifuged for 10 min at 1,000 g (2,400 rpm-Hettich, Rotenta). […] The residue (called the P2 fraction) was recovered in sucrose at a concentration of 50 mg/ml.
Exactly 5 min after the start of incubation, the reaction was stopped by vacuum filtration on Whatman GF/F filters (predilution with 2.5 ml of chilled buffer then rinsing with 3 times 2.5 ml).
The IC50 were determined by transposing the percentages of inhibition onto a graph in relation to the log of the product concentration (6 concentrations in duplicate).

primary rat hepatocytes = test: Safe-Hit genomic test of predictive toxicology (Toxicity Index) on primary rat hepatocytes; type: cell-based; details: 16 h
Description: After treatment of the primary rat hepatocytes in culture, the RNA was extracted in order to generate labelled complementary-DNA probes which were then hybridised on a membrane containing 682 alternatively-spliced fragments specific to cell stress. A Toxicity Index was obtained for each of the products by comparing the hybridisation profile of the treated cells with that of the untreated cells.
Safe-Hit allows molecules within a chemical series to be ranked according to a Toxic Index, determined after the following basic steps (systematically performed in duplicate for each product): • treatment of the cells lines with the various products at three different concentrations, deduced from a preliminary cytotoxicology test (MTT-assay): a reference concentration corresponding to 80% cell viability, a concentration 10-fold higher—when possible—and a concentration 10-fold lower, • preparation of total RNA and of the corresponding radio-labelled cDNA probes, • hybridisation of the cDNA probes: the Safe-Hit macroarray contains 682 independent clones, corresponding to alterations in gene splicing induced by overexpression of WTp53 (p53 is the most ubiquitous “mediator” of cell stress, chosen for the development of this methodology), • acquisition and determination of the Toxicity Index. 4.1.2. Cells
The cells used in the study (preliminary MTT-assay of cytotoxicity and the main test) are cryopreserved hepatocytes from Sprague-Dawley rats in primary culture (batches Hep184005 and Hep184006-Biopredic), cultured under standard conditions.
The cells are seeded and cultured for 16 hours with each product, at the three concentrations chosen on the basis of the preliminary MTT-assay; two controls (untreated cells in solvent alone) are added to the series.
The results of the two Safe-Hit analyses are then compared and combined to assess the potential toxicity of the various compounds tested. Two parameters that can be modified by the user are involved in the calculation of the Toxicity Index: • Background Threshold (BT) smoothes out weak signals, close to background noise and not attributable to significant gene expression. […] The value of this parameter is usually 2 or less than 2 in order to obtain relevant results. […]
Toxicity Indices (TI) were determined as described above. […] Two separate analyses were performed using two levels of differentiation (Induction Factor-IF) in relation to the untreated controls: • a factor of at least 1.7 in relation to the untreated controls. This factor of 1.7 times represents the weakest value that allows an index not to be obtained in relation to the two untreated controls. • a factor of at least 2 in relation to the untreated controls. This factor of 2 times allows the most robust signals to be taken into account. 4.3.1. Induction Factor of 1.7 in Relation to Untreated Control (Table 7)

[2] = in vivo
Description: In animals, the pharmacokinetics of each enantiomer were studied following administration of the racemate or of one single enantiomer.

[3] = Pharmacokinetic study in man (12 healthy subjects), racemate or one enantiomer alone; type: in vivo; details: human, plasma; for half-life: read-out: T½ (converted)
Protocol: A pharmacokinetic study in man involving 12 healthy subjects was performed by administering the racemate or one of the two enantiomers alone.

3H-norepinephrine uptake [4] = molecular target: T1, 3H-norepinephrine uptake; test: biochemical
Protocol: as §1, §2, §3, §4, §5, §6, §7, §8, §9, §10

[5] = enantiomer administered alone (25 mg)
[6] = enantiomer assayed after F2207 (50 mg)

T1 sequence (Q63380 1-617): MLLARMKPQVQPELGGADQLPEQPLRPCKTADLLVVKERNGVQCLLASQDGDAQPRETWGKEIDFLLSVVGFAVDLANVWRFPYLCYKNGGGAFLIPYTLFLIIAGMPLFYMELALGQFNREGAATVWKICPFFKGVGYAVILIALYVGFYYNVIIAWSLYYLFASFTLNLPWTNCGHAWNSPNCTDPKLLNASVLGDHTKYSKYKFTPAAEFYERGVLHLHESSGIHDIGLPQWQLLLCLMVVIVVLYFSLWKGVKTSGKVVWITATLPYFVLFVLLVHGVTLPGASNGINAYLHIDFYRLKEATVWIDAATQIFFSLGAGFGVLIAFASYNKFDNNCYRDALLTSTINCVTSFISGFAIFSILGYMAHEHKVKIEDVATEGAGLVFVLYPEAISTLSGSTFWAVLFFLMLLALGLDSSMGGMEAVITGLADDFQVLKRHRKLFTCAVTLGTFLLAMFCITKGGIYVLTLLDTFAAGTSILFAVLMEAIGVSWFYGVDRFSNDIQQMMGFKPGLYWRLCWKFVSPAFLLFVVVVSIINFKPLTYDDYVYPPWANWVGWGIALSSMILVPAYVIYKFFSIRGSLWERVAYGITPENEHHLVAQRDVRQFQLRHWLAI

CCN(CC)C(=O)C1(c2ccccc2)CC1CN (racemic) [F2207, Z(±)-2-(aminomethyl)-N,N-diethyl-1-phenyl cyclopropane carboxamide]
IC50 (3H-norepinephrine uptake [1]): 30 nM | IC50 (3H-paroxetine binding): 130 nM | IC50 (3H-serotonin uptake): 150 nM

CCN(CC)C(=O)[C@]1(c2ccccc2)C[C@@H]1CN [F2696, Z-(1R, 2S)-2-(aminomethyl)-N,N-diethyl-1-phenyl cyclopropane carboxamide]
Clone G09 (H. sapiens mitochondrion, cytochrome b), regulation factor vs untreated control (primary rat hepatocytes; 100 μM): 2.09 | Clone I01 (H. sapiens mitochondrion, cytochrome c oxidase subunit 1), regulation factor vs untreated control (primary rat hepatocytes; 100 μM): 2.05 | Clone L01 (H. sapiens divalent cation tolerant protein CUTA mRNA), regulation factor vs untreated control (primary rat hepatocytes; 100 μM): 2.05 | Clone M07 (H. sapiens mitochondrion, cytochrome c oxidase subunit 1), regulation factor vs untreated control (primary rat hepatocytes; 100 μM): 2.25 | Clone M12 (H. sapiens mRNA; cDNA DKFZp564C1563), regulation factor vs untreated control (primary rat hepatocytes; 100 μM): 0.21 | Clone W17 (H. sapiens mitochondrion, hypoxia inducible gene-14), regulation factor vs untreated control (primary rat hepatocytes; 100 μM): 2.96 | Clone T08 (H. sapiens mRNA for KIAA1185 protein), regulation factor vs untreated control (primary rat hepatocytes; Sprague-Dawley, rat, 1 μM): 0.50 | Clone U04 (H. sapiens translation initiation factor elF-2alpha mRNA), regulation factor vs untreated control (primary rat hepatocytes; Sprague-Dawley, rat, 1 μM): 0.57 | Number of down-regulated clones (Down) (primary rat hepatocytes; Sprague-Dawley, rat, 1 μM): 2 | Clone AC13 (H. sapiens 7S RNA L gene), regulation factor vs untreated control (primary rat hepatocytes; Sprague-Dawley, rat, 10 μM): 0.22 | Clone T08 (H. sapiens mRNA for KIAA1185 protein), regulation factor vs untreated control (primary rat hepatocytes; Sprague-Dawley, rat, 10 μM): 0.22 | Clone U04 (H. sapiens translation initiation factor elF-2alpha mRNA), regulation factor vs untreated control (primary rat hepatocytes; Sprague-Dawley, rat, 10 μM): 0.26 | Clone X02 (unk), regulation factor vs untreated control (primary rat hepatocytes; Sprague-Dawley, rat, 10 μM): 0.29 | Number of down-regulated clones (Down) (primary rat hepatocytes; Sprague-Dawley, rat, 10 μM): 5 | Clone A20 (H. sapiens initiation factor elF-5A gene), regulation factor vs untreated control (primary rat hepatocytes; Sprague-Dawley, rat, 100 μM): 0.56 | Clone AC13 (H. sapiens 7S RNA L gene), regulation factor vs untreated control (primary rat hepatocytes; Sprague-Dawley, rat, 100 μM): 0.16 | Clone C01 (H. sapiens mitochondrion, 16S), regulation factor vs untreated control (primary rat hepatocytes; Sprague-Dawley, rat, 100 μM): 3.20 | Clone E11 (H. sapiens chlordecone reductase homolog liver, mRNA), regulation factor vs untreated control (primary rat hepatocytes; Sprague-Dawley, rat, 100 μM): 2.12 | Clone I18 (H. sapiens 18S rRNA gene), regulation factor vs untreated control (primary rat hepatocytes; Sprague-Dawley, rat, 100 μM): 2.38 | Clone J03 (H. sapiens CLP mRNA), regulation factor vs untreated control (primary rat hepatocytes; Sprague-Dawley, rat, 100 μM): 2.12 | Clone L22 (H. sapiens mRNA for Lon protease-like protein), regulation factor vs untreated control (primary rat hepatocytes; Sprague-Dawley, rat, 100 μM): 1.78 | Clone M23 (Sequence 21 from U.S. Pat. No. 5,851,764), regulation factor vs untreated control (primary rat hepatocytes; Sprague-Dawley, rat, 100 μM): 1.95 | Clone P05 (H. sapiens PAC clone DJ404K21 from Xq23), regulation factor vs untreated control (primary rat hepatocytes; Sprague-Dawley, rat, 100 μM): 1.78 | Clone Q24 (H. sapiens 28S ribosomal RNA gene), regulation factor vs untreated control (primary rat hepatocytes; Sprague-Dawley, rat, 100 μM): 1.77 | Clone T08 (H. sapiens mRNA for KIAA1185 protein), regulation factor vs untreated control (primary rat hepatocytes; Sprague-Dawley, rat, 100 μM): 0.20 | Clone U04 (H. sapiens translation initiation factor elF-2alpha mRNA), regulation factor vs untreated control (primary rat hepatocytes; Sprague-Dawley, rat, 100 μM): 0.19 | Clone X02 (unk), regulation factor vs untreated control (primary rat hepatocytes; Sprague-Dawley, rat, 100 μM): 0.20 | Clone X06 (H. sapiens Genomic sequence from 9q34), regulation factor vs untreated control (primary rat hepatocytes; Sprague-Dawley, rat, 100 μM): 0.16 | Clone X23 (unk), regulation factor vs untreated control (primary rat hepatocytes; Sprague-Dawley, rat, 100 μM): 1.92 | Clone Y17 (H. sapiens 28S ribosomal RNA gene), regulation factor vs untreated control (primary rat hepatocytes; Sprague-Dawley, rat, 100 μM): 2.65 | Plasma concentrations of the enantiomers compared ([2]; monkey): approximately equivalent | Plasma concentrations of the enantiomers compared ([2]; rat): approximately equivalent | IC50 (3H-paroxetine binding): 700 nM | AUC(0-inf) [3, 5]: 1.54 µM·h | Cmax [3, 5]: 212 nM | Tmax [3, 5]: 2.21 h | half-life [3, 5]: 5.58 h | AUC(0-inf) [3, 6]: 1.56 µM·h | Cmax [3, 6]: 179 nM | Tmax [3, 6]: 2.87 h | half-life [3, 6]: 5.75 h | IC50 (3H-serotonin uptake): 600 nM | IC50 (3H-norepinephrine uptake [4]): 750 nM
